tested on: THP1-Dual™ reporter cells; experiment: THP1-Dual cell reporter assay (IRF-Lucia luciferase reporter); format: cell-based, human; settings: ADCs: drug linker conjugated to a targeted mAb, 48 h
Procedure: THP1-Dual™ Cell Reporter Assay
Potency of compounds and ADCs was evaluated using the THP1-Dual™ cells (InvivoGen PN: thpd-nfis [also referred to as THP1 dual reporter cells]), which contain an IRF-Lucia luciferase reporter. Cells were cultured in RPMI-1640 (Gibco) with 10% heat-inactivated fetal bovine serum, Pen-Strep (100 U/mL-100 μg/mL, Gibco), HEPES (10 mM, Gibco)), sodium pyruvate (1 mM, Gibco), MEM non-essential amino acids (1×, Gibco), GlutaMAX (1×, Gibco), and beta-mercaptoethanol (55 μM, Gibco). Cells were plated in a 96-well flat bottom tissue culture-treated clear polystyrene plate (Corning Costar #3596) at ˜100,000 cells per well in 200 μL with the indicated concentration of the compound or ADC. The supernatant was harvested at 24 hours (compounds) or 48 hours (ADC) post plating for the reporter assay, or as indicated. To measure Lucia reporter signal, 10 μL of the supernatant was combined with 40 μL of QUANTI-Luc™ Luminescence assay reagent (Invivogen PN: rep-qlc1) in a 96-well clear flat bottom tissue culture-treated black polystyrene plate (Corning Costar #3603) and read on a Perkin Elmer Envision plate reader.
STING agonist compounds were assessed for their ability to activate THP1-Dual™ reporter cells, a human monocytic cell line in which type I interferon (IRF) signaling can be monitored via a secreted luciferase reporter protein (Lucia). THP1-Dual™ cells were treated with increasing concentrations of the agonists for 24h, then supernatants were harvested and the Lucia reporter signal was quantified using QUANTI-Luc™ Luminescence assay reagent.

Compound | EC50 (ng/mL) | EC50 [ng/mL]
CCn1nc(C)cc1C(=O)Nc1nc2cc(C(N)=O)cc(OC)c2n1C/C=C/Cn1c(NC(=O)c2cccnn2)nc2cc(C(N)=O)cc(OCCCN(C)C(=O)CCN3C(=O)C=CC3=O)c21 [Compound 96] | >10,000 ng/mL | 
CCn1nc(C)cc1C(=O)Nc1nc2cc(C(N)=O)cc(OC)c2n1C/C=C/Cn1c(NC(=O)c2ccnnc2)nc2cc(C(N)=O)cc(OCCCN(C)C(=O)CCN3C(=O)C=CC3=O)c21 [Compound 98] | >10,000 ng/mL | 
CCn1nc(C)cc1C(=O)Nc1nc2cc(C(N)=O)cc(OC)c2n1C/C=C/Cn1c(NC(=O)c2ncccn2)nc2cc(C(N)=O)cc(OCCCN(C)C(=O)CCN3C(=O)C=CC3=O)c21 [Compound 101] | >10,000 ng/mL | 
CCn1cc(C(=O)Nc2nc3cc(C(N)=O)cc(OCCCN(C)C(=O)CCN4C(=O)C=CC4=O)c3n2C/C=C/Cn2c(NC(=O)c3cc(C)nn3CC)nc3cc(C(N)=O)cc(OC)c32)c(C)n1 [Compound 102] | >10,000 ng/mL | 
CCn1cc(C)nc1C(=O)Nc1nc2cc(C(N)=O)cc(OCCCN(C)C(=O)CCN3C(=O)C=CC3=O)c2n1C/C=C/Cn1c(NC(=O)c2cc(C)nn2CC)nc2cc(C(N)=O)cc(OC)c21 [Compound 103] | >10,000 ng/mL | 
CCc1cc(C(=O)Nc2nc3cc(C(N)=O)cc(OCCCN(C)C(=O)CCN4C(=O)C=CC4=O)c3n2C/C=C/Cn2c(NC(=O)c3cc(C)nn3CC)nc3cc(C(N)=O)cc(OC)c32)n(C)n1 [Compound 104] | >10,000 ng/mL | 
CCn1nc(C)cc1C(=O)Nc1nc2cc(C(N)=O)cc(OC)c2n1C/C=C/Cn1c(NC(=O)c2cc(C)nn2C)nc2cc(C(N)=O)cc(OCCCN(C)C(=O)CCN3C(=O)C=CC3=O)c21 [Compound 105] |  | 52.5
CCc1oc(C)cc1C(=O)Nc1nc2cc(C(N)=O)cc(OCCCN(C)C(=O)CCN3C(=O)C=CC3=O)c2n1C/C=C/Cn1c(NC(=O)c2cc(C)nn2CC)nc2cc(C(N)=O)cc(OC)c21 [Compound 106] | >10,000 ng/mL | 
CCn1nc(C)cc1C(=O)Nc1nc2cc(C(N)=O)cc(OC)c2n1C/C=C/Cn1c(NC(=O)c2cc(C)sn2)nc2cc(C(N)=O)cc(OCCCN(C)C(=O)CCN3C(=O)C=CC3=O)c21 [Compound 107] | >10,000 ng/mL | 
CCn1nc(C)cc1C(=O)Nc1nc2cc(C(N)=O)cc(OC)c2n1C/C=C/Cn1c(NC(=O)c2ccnn2CC)nc2cc(C(N)=O)cc(OCCCN(C)C(=O)CCN3C(=O)C=CC3=O)c21 [Compound 108] |  | 63.5
CCn1nc(C)cc1C(=O)Nc1nc2cc(C(N)=O)cc(OC)c2n1C/C=C/Cn1c(NC(=O)c2cc(C(F)(F)F)nn2CC)nc2cc(C(N)=O)cc(OCCCN(C)C(=O)CCN3C(=O)C=CC3=O)c21 [Compound 109] | >10,000 ng/mL | 
CCn1nc(C)cc1C(=O)Nc1nc2cc(C(N)=O)cc(OC)c2n1C/C=C/Cn1c(NC(=O)c2c(C)cnn2C)nc2cc(C(N)=O)cc(OCCCN(C)C(=O)CCN3C(=O)C=CC3=O)c21 [Compound 110] | >10,000 ng/mL | 
CCc1nc(C)sc1C(=O)Nc1nc2cc(C(N)=O)cc(OCCCN(C)C(=O)CCN3C(=O)C=CC3=O)c2n1C/C=C/Cn1c(NC(=O)c2cc(C)nn2CC)nc2cc(C(N)=O)cc(OC)c21 [Compound 111] |  | 13.2
CCc1nc(C)oc1C(=O)Nc1nc2cc(C(N)=O)cc(OCCCN(C)C(=O)CCN3C(=O)C=CC3=O)c2n1C/C=C/Cn1c(NC(=O)c2cc(C)nn2CC)nc2cc(C(N)=O)cc(OC)c21 [Compound 112] |  | 2
CCn1nc(C)cc1C(=O)Nc1nc2cc(C(N)=O)cc(OC)c2n1C/C=C/Cn1c(NC(=O)c2cc(C)nn2CC)nc2cc(C(N)=O)cc(OCCCN(C)C(=O)[C@H](CC(C)C)NC(=O)CCN3C(=O)C=CC3=O)c21 [Compound 121] |  | 3.0
CCn1nc(C)cc1C(=O)Nc1nc2cc(C(N)=O)cc(OC)c2n1C/C=C/Cn1c(NC(=O)c2cc(C)nn2CC)nc2cc(C(N)=O)cc(OCCCN(C)C(=O)[C@H](Cc3ccccc3)NC(=O)CCN3C(=O)C=CC3=O)c21 [Compound 122] |  | 5.6
CCn1nc(C)cc1C(=O)Nc1nc2cc(C(N)=O)cc(OC)c2n1C/C=C/Cn1c(NC(=O)c2cc(C)nn2CC)nc2cc(C(N)=O)cc(OCCCN(C)C(=O)[C@H](CCC(=O)OC)NC(=O)CCN3C(=O)C=CC3=O)c21 [Compound 123] |  | 1.6

same assay, conditions: Homo sapiens, THP1-Dual; free compounds, 24 h, Lucia reporter signal; read-out: EC50

Compound | EC50 [µM]
CCn1nc(C)cc1C(=O)Nc1nc2cc(C(N)=O)cc(OC)c2n1C/C=C/Cn1c(NC(=O)c2cccnn2)nc2cc(C(N)=O)cc(OCCCNC)c21 [Compound 79] | > 10
CCn1nc(C)cc1C(=O)Nc1nc2cc(C(N)=O)cc(OC)c2n1C/C=C/Cn1c(NC(=O)c2ccnnc2)nc2cc(C(N)=O)cc(OCCCNC)c21 [Compound 80] | > 10
CCn1nc(C)cc1C(=O)Nc1nc2cc(C(N)=O)cc(OC)c2n1C/C=C/Cn1c(NC(=O)c2cc(C)on2)nc2cc(C(N)=O)cc(OCCCNC)c21 [Compound 81] | > 10
CCn1nc(C)cc1C(=O)Nc1nc2cc(C(N)=O)cc(OC)c2n1C/C=C/Cn1c(NC(=O)c2cc(C)no2)nc2cc(C(N)=O)cc(OCCCNC)c21 [Compound 82] | > 10
CCn1nc(C)cc1C(=O)Nc1nc2cc(C(N)=O)cc(OC)c2n1C/C=C/Cn1c(NC(=O)c2cc(C)ns2)nc2cc(C(N)=O)cc(OCCCNC)c21 [Compound 83] | > 10
CCn1nc(C)cc1C(=O)Nc1nc2cc(C(N)=O)cc(OC)c2n1C/C=C/Cn1c(NC(=O)c2ncccn2)nc2cc(C(N)=O)cc(OCCCNC)c21 [Compound 84] | > 10
CCn1cc(C(=O)Nc2nc3cc(C(N)=O)cc(OCCCNC)c3n2C/C=C/Cn2c(NC(=O)c3cc(C)nn3CC)nc3cc(C(N)=O)cc(OC)c32)c(C)n1 [Compound 85] | > 10
CCn1cc(C)nc1C(=O)Nc1nc2cc(C(N)=O)cc(OCCCNC)c2n1C/C=C/Cn1c(NC(=O)c2cc(C)nn2CC)nc2cc(C(N)=O)cc(OC)c21 [Compound 86] | 2.46
CCc1cc(C(=O)Nc2nc3cc(C(N)=O)cc(OCCCNC)c3n2C/C=C/Cn2c(NC(=O)c3cc(C)nn3CC)nc3cc(C(N)=O)cc(OC)c32)n(C)n1 [Compound 87] | > 10
CCn1nc(C)cc1C(=O)Nc1nc2cc(C(N)=O)cc(OC)c2n1C/C=C/Cn1c(NC(=O)c2cc(C)nn2C)nc2cc(C(N)=O)cc(OCCCNC)c21 [Compound 88] | 0.394
CCc1oc(C)cc1C(=O)Nc1nc2cc(C(N)=O)cc(OCCCNC)c2n1C/C=C/Cn1c(NC(=O)c2cc(C)nn2CC)nc2cc(C(N)=O)cc(OC)c21 [Compound 89] | 1.32
CCn1nc(C)cc1C(=O)Nc1nc2cc(C(N)=O)cc(OC)c2n1C/C=C/Cn1c(NC(=O)c2cc(C)sn2)nc2cc(C(N)=O)cc(OCCCNC)c21 [Compound 90] | > 10
CCn1nc(C)cc1C(=O)Nc1nc2cc(C(N)=O)cc(OC)c2n1C/C=C/Cn1c(NC(=O)c2ccnn2CC)nc2cc(C(N)=O)cc(OCCCNC)c21 [Compound 91] | 0.35
CCn1nc(C)cc1C(=O)Nc1nc2cc(C(N)=O)cc(OC)c2n1C/C=C/Cn1c(NC(=O)c2cc(C(F)(F)F)nn2CC)nc2cc(C(N)=O)cc(OCCCNC)c21 [Compound 92] | 1.19
CCn1nc(C)cc1C(=O)Nc1nc2cc(C(N)=O)cc(OC)c2n1C/C=C/Cn1c(NC(=O)c2c(C)cnn2C)nc2cc(C(N)=O)cc(OCCCNC)c21 [Compound 93] | > 10
CCc1nc(C)sc1C(=O)Nc1nc2cc(C(N)=O)cc(OCCCNC)c2n1C/C=C/Cn1c(NC(=O)c2cc(C)nn2CC)nc2cc(C(N)=O)cc(OC)c21 [Compound 94] | 0.133
CCc1nc(C)oc1C(=O)Nc1nc2cc(C(N)=O)cc(OCCCNC)c2n1C/C=C/Cn1c(NC(=O)c2cc(C)nn2CC)nc2cc(C(N)=O)cc(OC)c21 [Compound 95] | 0.0129
CCn1nc(C)cc1C(=O)Nc1nc2cc(C(N)=O)cc(OC)c2n1C/C=C/Cn1c(NC(=O)c2cc(C)nn2CC)nc2cc(C(N)=O)cc(OCCCN(C)C(=O)[C@@H](N)CC(C)C)c21 [Compound 114] | 0.0094
CC[C@H](C)[C@H](N)C(=O)N(C)CCCOc1cc(C(N)=O)cc2nc(NC(=O)c3cc(C)nn3CC)n(C/C=C/Cn3c(NC(=O)c4cc(C)nn4CC)nc4cc(C(N)=O)cc(OC)c43)c12 [Compound 115] | 0.0174
CCn1nc(C)cc1C(=O)Nc1nc2cc(C(N)=O)cc(OC)c2n1C/C=C/Cn1c(NC(=O)c2cc(C)nn2CC)nc2cc(C(N)=O)cc(OCCCN(C)C(=O)[C@@H](N)Cc3ccccc3)c21 [Compound 116] | 0.0116
CCn1nc(C)cc1C(=O)Nc1nc2cc(C(N)=O)cc(OC)c2n1C/C=C/Cn1c(NC(=O)c2cc(C)nn2CC)nc2cc(C(N)=O)cc(OCCCN(C)C(=O)[C@@H](N)CCC(=O)OC)c21 [Compound 117] | 0.0146
CCn1nc(C)cc1C(=O)Nc1nc2cc(C(N)=O)cc(OC)c2n1C/C=C/Cn1c(NC(=O)c2cc(C)nn2CC)nc2cc(C(N)=O)cc(OCCCN(C)C(=O)[C@@H](N)Cc3ccc(OC)cc3)c21 [Compound 118] | 0.0236
CCn1nc(C)cc1C(=O)Nc1nc2cc(C(N)=O)cc(OC)c2n1C/C=C/Cn1c(NC(=O)c2cc(C)nn2CC)nc2cc(C(N)=O)cc(OCCCN(C)C(=O)[C@@H](N)Cc3cn(C)cn3)c21 [Compound 119] | 0.0499
CCn1nc(C)cc1C(=O)Nc1nc2cc(C(N)=O)cc(OC)c2n1C/C=C/Cn1c(NC(=O)c2cc(C)nn2CC)nc2cc(C(N)=O)cc(OCCCN(C)C(=O)[C@@H](N)[C@@H](C)OC)c21 [Compound 120] | 0.0052
